The values below come from patent publication US20210355166A1, “[…] METHODS OF USE THEREOF” (priority 2018, published 2021).

In test [1] the target is human κ-opioid receptor (hKOPr), human recombinant KOPr expressed in CHO cells (human) (UniProt P41145). Kind of test: competition with [3H]U69593 (2 nM), human recombinant KOPr expressed in CHO cells.
The target in test [2] is human δ-opioid receptor (hDOPr), human recombinant DOPr expressed in CHO cells (human) (UniProt P41143). Kind of test: competition with [3H]DADLE (0.5 nM), human recombinant DOPr expressed in CHO cells.
The target of another test is T1, mouse MOPr (mMOPr) (Mus musculus, UniProt P42866).
T1 construct: expressed in transfected cells
It is filed as cell-based. The note with it: operational model fit.

For test [3], the target named is T2, MOPr (Mus musculus, UniProt P42866). Kind of test: Ser375 phosphorylation assay in AtT20 cells expressing MOPr. It counts as cell-based. Details: expressed in transfected cells. Conditions: met-enkephalin defined as 100%. On the procedure: Cells were serum starved for at least 30 min and then incubated in the absence or presence of the indicated ligand for 5-10 min at 37° C. Phosphorylation was terminated by fixing the cells with −30° C. methanol followed by 10 min incubation on ice. Cells were washed three times with phosphate buffered saline (PBS) and then heated in sodium citrate buffer (10 mM, 0.05% Tween 20, pH.6) for 20 min at 95° C. […] Imaging was performed as detailed below.
(§1) Imaging parameters including laser intensity, photomultiplier tube (PMT) voltage and offset remained constant for each experiment. Mean fluorescence intensity was measured using ImageJ software to calculate mean gray value of an area defined […] a single cell. Each experiment was normalized to the mean of untreated cells as 0% and the mean of cells treated with saturating concentrations of Met-enk (30 μM) as 100%.

The target of test [4] is T2, MOPr. Kind of test: MOPr internalisation (endocytosis assay) in AtT20 cells. It is filed as cell-based. Details: expressed in transfected cells. The protocol: as §1
MOPr internalisation was assessed immunocytochemically after 30 minutes of agonist treatment (FIGS. 8, 9). […] Endocytosis assay: Receptor internalization was quantified using a ratiometric staining of membrane and internalized receptors. […] Cells were then incubated for an additional 30 min with indicated agonist at 37° C. To unbind the M1 anti-FLAG antibody from the surface receptors, cells were quickly washed three times with ice-cold PBS lacking Mg^2+ and Ca^2+ and supplemented with 0.04% EDTA (pH 7.4).

Test [5] addresses T2, MOPr. It is filed as cell-based. Details: expressed in transfected cells; host or cells: AtT20 cells, transient co-transfection. On the procedure:
Arrestin recruitment: Agonist-induced recruitment of β-arrestin2 to MOPr was examined using a BRET-based approach. AtT20 cells were plated in 10-cm dishes and co-transfected with MOPr C-terminally tagged with Rluc8 (MOPr-RLuc8), β-arrestin2-YFP and GRK2 (1 μg, 4 μg and 2 μg, respectively). 24 h after transfection wells were replated into white opaque 96-well plates (CulturPlate, PerkinElmer) and allowed to adhere overnight. Cells were washed with Hank's Balanced Salt Solution (HBSS) and equilibrated in HBSS for 30 min at 37° C. prior to the experiment. Coelenterazine h was added to a final concentration of 5 μM 10 min before dual fluorescence/luminescence measurement in a LUMIstar Omega plate reader (BMG LabTech). Baseline BRET was measured for 30 sec prior to addition of the indicated ligand. The BRET signal was calculated as the ratio of light emitted at 530 nm by YFP over the light emitted at 430 nm by Renilla luciferase 8 (RLuc8).

Marks after values point to notes of the source that are not given here.

In the case of “bilorphin (H-[Dmt]-vVf-NH2; 2,6-dimethyl-L-tyrosine-D-Val-L-Val-D-Phe-NH2) (peptide)”, the Ki (commonly the dissociation constant of the complex between target and ligand, obtained from inhibition or displacement) in test [1] came to 770 nM; in test [2] it was 190 nM.
Take endomorphin-2: the “GIRK (80% knockdown) log(tau/KA)” value on mouse MOPr (mMOPr) amounted to 7.5 ± 0.04. The “Phosphorylation Emax” value on MOPr [3] is 98 ± 2%. Besides, on MOPr [4], the “Internalisation Emax” value was found to be 94 ± 3%, the “Internalisation log(tau/KA)” value is listed as 6.2 ± 0.05 and the “MOPr internalisation” value was “robust internalisation”. For the same substance, on MOPr [5] (BRET), the “β-arrestin 2 recruitment Emax” value turned out to be 100 ± 3. In addition, the “β-arrestin 2 recruitment log(tau/KA)” value on MOPr [5] (operational model fit) is on record as 7.0 ± 0.06.
On to met-enkephalin, for which the “Phosphorylation Emax” value at MOPr [3] is given as 100* %. At MOPr [4], the “Internalisation Emax” value is given as 100* % and the “MOPr internalisation” value is given as “robust internalisation”.
